Experiment [1] deals with MOLP-8 human multiple myeloma cell line. Briefly: MOLP8 Caspase-Glo 3/7 apoptosis induction assay. In kind it is cell-based. Conditions: MOLP-8 cells, 2 hours at 37° C., 30 μM highest conc., averaged over all runs on all batches. From the text:
MCL-1 is a regulator of apoptosis and is highly over-expressed in tumor cells that escape cell death. The assay evaluates the cellular potency of small-molecule compounds targeting regulators of the apoptosis pathway, primarily MCL-1, Bfl-1, Bcl-2, and other proteins of the Bcl-2 family. Protein-protein inhibitors disrupting the interaction of anti-apoptotic regulators with BH3-domain proteins initiate apoptosis.
The Caspase-Glo® 3/7 Assay is a luminescent assay that measures caspase-3 and -7 activities in purified enzyme preparations or cultures of adherent or suspension cells. The assay provides a proluminescent caspase-3/7 substrate, which contains the tetrapeptide sequence DEVD. This substrate is cleaved to release aminoluciferin, a substrate of luciferase used in the production of light. Addition of the single Caspase-Glo® 3/7 Reagent in an “add-mix-measure” format results in cell lysis, followed by caspase cleavage of the substrate and generation of a “glow-type” luminescent signal.
This assay uses the MOLP-8 human multiple myeloma cell line, which is sensitive to MCL-1 inhibition.
Cell cultures were maintained between 0.2 and 2.0×10^6 cells/mL. The cells were harvested by collection in 50 mL conical tubes. The cells were then pelleted at 500 g for 5 mins before removing supernatant and resuspension in fresh pre-warmed culture medium. The cells were counted and diluted as needed.
The assay reagent was prepared by transferring the buffer solution to the substrate vial and mixing. The solution may be stored for up to 1 week at 4° C. with negligible loss of signal.
Compounds were delivered in assay-ready plates (Proxiplate) and stored at −20° C.
Assays always include 1 reference compound plate containing reference compounds. The plates were spotted with 40 nL of compounds (0.5% DMSO final in cells; serial dilution; 30 μM highest conc. 1/3 dilution, 10 doses, duplicates). The compounds were used at room temperature and 4 μL of pre-warmed media was added to all wells except column 2 and 23. The negative control was prepared by adding 1% DMSO in media. The positive control was prepared by adding the appropriate positive control compound in final concentration of 60 μM in media. The plate was prepared by adding 4 μL negative control to column 23, 4 μL positive control to column 2 and 4 μL cell suspension to all wells in the plate. The plate with cells was then incubated at 37° C. for 2 hours. The assay signal reagent is the Caspase-Glo solution described above, and 8 μL was added to all wells. The plates were then sealed and measured after 30 minutes.
The activity of a test compound was calculated as percent change in apoptosis induction as follows:
[formula] [formula] % Effect (AC50)=100−((sample−LC)/(HC−LC))*100
% Control=(sample/HC)*100
% Control min=(sample−LC)/(HC−LC)*100

The target of experiment [2] is Myeloid Cell Leukemia 1 (Mcl-1) (Homo sapiens, UniProt Q07820). Briefly: Terbium labeled Mcl-1 HTRF binding assay with Cy5-labeled BIM BH3 peptide. Conditions: Ki=IC50/(1+[L]/Kd), [L]=8 nM, Kd=10 nM, 60 min incubation at room temperature, read-out: Tb-MCL1 Ki. How it is done: Terbium labeled Myeloid Cell Leukemia 1 (Mcl-1) homogeneous time-resolved fluorescence (HTRF) binding assay utilizing the BIM BH3 peptide (H2N-(C/Cy5Mal) WIAQELRRIGDEFN-OH) as the binding partner for Mcl-1.
Myeloid Cell Leukemia 1 (Mcl-1), sequence (Q07820 whole entry, the tested form may be a part): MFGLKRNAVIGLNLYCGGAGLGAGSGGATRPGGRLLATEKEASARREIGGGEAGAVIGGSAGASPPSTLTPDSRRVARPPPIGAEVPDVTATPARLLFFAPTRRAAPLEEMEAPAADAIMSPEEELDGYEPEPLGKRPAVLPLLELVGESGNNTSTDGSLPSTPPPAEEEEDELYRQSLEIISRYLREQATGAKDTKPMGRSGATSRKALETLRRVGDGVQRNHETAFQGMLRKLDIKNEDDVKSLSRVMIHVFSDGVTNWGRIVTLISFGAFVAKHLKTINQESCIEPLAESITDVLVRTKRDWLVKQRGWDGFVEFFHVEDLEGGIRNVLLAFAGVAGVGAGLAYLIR
This assay evaluated inhibition of the BH3 domain: Mcl-1 interaction by measuring the displacement of Cy5-labeled BIM BH3 peptide (H2N—(C/Cy5Mal) WIAQELRRIGDEFN-OH) in the HTRF assay format.
The following assay and stock buffers were prepared for use in the assay: (a) Stock buffer: 10 mM Tris-HCl, pH=7.5+150 mM NaCl, filtered, sterilized, and stored at 4° C.; and (b) 1×assay buffer, where the following ingredients were added fresh to stock buffer: 2 mM dithiothreitol (DTT), 0.0025% Tween-20, 0.1 mg/mL bovine serum albumin (BSA). The 1×Tb-Mcl-1+Cy5 Bim peptide solution was prepared by diluting the protein stock solution using the 1×assay buffer (b) to 25 pM Tb-Mcl-1 and 8 nM Cy5 Bim peptide.
Using the Acoustic ECHO, 100 nL of 100×test compound(s) were dispensed into individual wells of a white 384-well Perkin Elmer Proxiplate, for a final compound concentration of 1× and final DMSO concentration of 1%. Inhibitor control and neutral control (NC, 100 nL of 100% DMSO) were stamped into columns 23 and 24 of assay plate, respectively. Into each well of the plate was then dispensed 10 μL of the 1×Tb-Mcl-1+Cy5 Bim peptide solution. The plate was centrifuged with a cover plate at 1000 rpm for 1 minute, then incubated for 60 minutes at room temperature with plates covered.
The TR-FRET signal was read on an BMG PHERAStar FSX MicroPlate Reader at room temperature using the HTRF optic module (HTRF: excitation: 337 nm, light source: laser, emission A: 665 nm, emission B: 620 nm, integration start: 60 μs, integration time: 400 μs).
The BMG PHERAStar FSX MicroPlate Reader was used to measure fluorescence intensity at two emission wavelengths—665 nm and 620 nm—and report relative fluorescence units (RFU) for both emissions, as well as a ratio of the emissions (665 nm/620 nm)*10,000. The RFU values were normalized to percent inhibition as follows:
% inhibition=(((NC−IC)−(compound−IC))/(NC−IC))*100
where IC (inhibitor control, low signal)=mean signal of 1×Tb-MCl-1+Cy5 Bim peptide+inhibitor control or 100% inhibition of Mcl-1; NC (neutral control, high signal)=mean signal 1×Tb-MCl-1+Cy5 Bim peptide with DMSO only or 0% inhibition
An 11-point dose response curve was generated to determine IC50 values (using GenData) based on the following equation:
Y=Bottom+(Top−Bottom)/(1+10^((log IC50−X)*HillSlope))
where Y=% inhibition in the presence of X inhibitor concentration; Top=100% inhibition derived from the IC (mean signal of Mcl-1+inhibitor control); Bottom=0% inhibition derived from the NC (mean signal of Mcl-1+DMSO); Hillslope=Hill coefficient; and IC50=concentration of compound with 50% inhibition in relation to top/neutral control (NC).
In this assay [L]=8 nM and Kd=10 nM
Representative compounds of the present invention were tested according to the procedure as described above, with results as listed in the Table below (n.d. means not determined).
(In TR-FRET formats the signal depends on donor and acceptor labels being close together.)

A value given as a limit tells only on which side of the number the result lay.

As usually defined, the AC50 is the midpoint of the concentration-response curve, whichever way the signal moves. The low end stands for greater potency, the high end for weaker potency. Usually Ki stands for the equilibrium dissociation constant of an inhibitor or competing ligand from its target.

In experiment [1], `Cc1nn(C)c2c1CSCc1cc(n(C)n1)CSc1cc(c3ccccc3c1)OCCCc1c(C(=O)O)n(C)c3c-2c(Cl)ccc13` (single isomer, unassigned) [Compound 1] returned an AC50 of 1220 nM. In addition, the Ki in experiment [2] was found to be 0.746 nM.

Turning to `Cc1nn(C)c2c1CSCc1cc(n(C)n1)CSc1cc(c3ccccc3c1)OCCCc1c(C(=O)O)n(C)c3c-2c(Cl)ccc13` (single isomer, unassigned) [Compound 2], half-maximal activity in experiment [1] (AC50) was put at 54 nM. The Ki in experiment [2] was determined as 0.039 nM.

Compound `COCCOCc1nn(C)c2c1CSCc1cc(n(C)n1)CCc1cc(c3ccccc3c1)OCCCc1c(C(=O)O)n(C)c3c-2c(Cl)ccc13` (single isomer, unassigned) [Compound 3] yielded an AC50 in experiment [1] above 30000 nM. In addition, in experiment [2], the Ki was found to be 98.2 nM.

With `COCCOCc1nn(C)c2c1CSCc1cc(n(C)n1)CCc1cc(c3ccccc3c1)OCCCc1c(C(=O)O)n(C)c3c-2c(Cl)ccc13` (single isomer, unassigned) [Compound 4], the AC50 in experiment [1] amounted to 46 nM. Further, in experiment [2], the Ki is 0.023 nM.

As to `Cn1nc2cc1CSc1cc(c3ccccc3c1)OCCCc1c(C(=O)O)n(C)c3c(c(Cl)ccc13)-c1c(cnn1C)CSC2` (single isomer, unassigned) [Compound 6], in experiment [1] (Homo sapiens, MOLP-8, 2 h), the concentration at half-maximal activity (AC50) came to 58 nM. Besides, in experiment [2], the Ki turned out to be 0.062 nM.

Turning to `COCCOCc1nn(C)c2c1CSCc1cc(n(C)n1)CCc1cc(c3ccc(F)cc3c1)OCCCc1c(C(=O)O)n(C)c3c-2c(Cl)ccc13` (single isomer, unassigned) [Compound 7], the AC50 in experiment [1] worked out at 20400 nM. Further, the Ki in experiment [2] is 52.3 nM.

In experiment [1], `COCCOCc1nn(C)c2c1CSCc1cc(n(C)n1)CCc1cc(c3ccc(F)cc3c1)OCCCc1c(C(=O)O)n(C)c3c-2c(Cl)ccc13` (single isomer, unassigned) [Compound 8] had an AC50 of 15 nM. For the same compound, in experiment [2], the Ki stood at 0.025 nM.

With `Cc1nn(C)c2c1CSCc1cc(n(C)n1)CCc1cc(c3ccc(F)cc3c1)OCCCc1c(C(=O)O)n(C)c3c-2c(Cl)ccc13` (single isomer, unassigned) [Compound 9], the AC50 in experiment [1] turned out to be 8960 nM. Further, the inhibition constant Ki in experiment [2] was 18.7 nM.

As to `Cc1nn(C)c2c1CSCc1cc(n(C)n1)CCc1cc(c3ccc(F)cc3c1)OCCCc1c(C(=O)O)n(C)c3c-2c(Cl)ccc13` (single isomer, unassigned) [Compound 10], half-maximal activity in experiment [1] (AC50) was put at 10 nM. In experiment [2], the Ki was 0.307 nM.

`Cc1nn(C)c2c1CSCc1cc(n(C)n1)CCc1cc(c3ccc(F)cc3c1)OCCCc1c(C(=O)O)n(C)c3c-2c(Cl)ccc13` (single isomer, unassigned) [Compound 10a] showed an AC50 in experiment [1] of 68 nM. Also, the Ki in experiment [2] is 0.041 nM.

In experiment [1], `Cc1nn(C)c2c1CSCc1cc(n(C)n1)CCc1cc(c3ccccc3c1)OCCCc1c(C(=O)O)n(C)c3c-2c(Cl)ccc13` (single isomer, unassigned) [Compound 11] gave an AC50 of 1620 nM. Also, the Ki in experiment [2] came out at 3.02 nM.

Turning to `Cc1nn(C)c2c1CSCc1cc(n(C)n1)CCc1cc(c3ccccc3c1)OCCCc1c(C(=O)O)n(C)c3c-2c(Cl)ccc13` (single isomer, unassigned) [Compound 11a], in experiment [1], the AC50 was found to be 2380 nM. Also, in experiment [2], the inhibition constant Ki is 3.68 nM.

The compound `Cc1nn(C)c2c1CSCc1cc(n(C)n1)CCc1cc(c3ccccc3c1)OCCCc1c(C(=O)O)n(C)c3c-2c(Cl)ccc13` (single isomer, unassigned) [Compound 12a] displayed an AC50 in experiment [1] of 29 nM. Moreover, the Ki in experiment [2] was found to be 0.031 nM.

As for `CCn1c(C(=O)O)c2c3ccc(Cl)c(c31)-c1c(cnn1C)CCCc1cc(n(C)n1)CCc1cc(c3ccc(F)cc3c1)OCCC2` (single isomer, unassigned) [Compound 13], half-maximal activity in experiment [1] (AC50) was put at 22 nM. The Ki in experiment [2] is 0.051 nM.

The compound `CCn1c(C(=O)O)c2c3ccc(Cl)c(c31)-c1c(cnn1C)CCCc1cc(n(C)n1)CCc1cc(c3ccc(F)cc3c1)OCCC2` (single isomer, unassigned) [Compound 14] registered an AC50 in experiment [1] of 3460 nM. Also, the Ki in experiment [2] amounted to 6.15 nM.

Turning to `COCCOCc1nn(C)c2c1CSCc1cc(n(C)n1)CCc1cc(c3ccc(F)c(F)c3c1)OCCCc1c(C(=O)O)n(C)c3c-2c(Cl)ccc13` (single isomer, unassigned) [Compound 15], in experiment [1], the AC50 is 1400 nM. For the same compound, in experiment [2], the Ki stood at 2.58 nM.

As to `COCCOCc1nn(C)c2c1CSCc1cc(n(C)n1)CCc1cc(c3ccc(F)c(F)c3c1)OCCCc1c(C(=O)O)n(C)c3c-2c(Cl)ccc13` (single isomer, unassigned) [Compound 16], the AC50 in experiment [1] was determined as 13 nM. For the same compound, the inhibition constant Ki in experiment [2] was determined as 0.021 nM.

With `COCCOCCc1nn(C)c2c1CSCc1cc(n(C)n1)CCc1cc(c3ccc(F)cc3c1)OCCCc1c(C(=O)O)n(C)c3c-2c(Cl)ccc13` (single isomer, unassigned) [Compound 17], the AC50 in experiment [1] turned out to be 15 nM. Moreover, in experiment [2], the Ki worked out at 0.011 nM.

With `COCCOCCc1nn(C)c2c1CSCc1cc(n(C)n1)CCc1cc(c3ccc(F)cc3c1)OCCCc1c(C(=O)O)n(C)c3c-2c(Cl)ccc13` (single isomer, unassigned) [Compound 18], the AC50 in experiment [1] worked out at 2430 nM. Besides, in experiment [2], the Ki was found to be 2.1 nM.

`Cn1nc2cc1CCc1cc(c3ccc(F)cc3c1)OCCCc1c(C(=O)O)n(CCN3CCOCC3)c3c(c(Cl)ccc13)-c1c(cnn1C)CSC2` (single isomer, unassigned) [Compound 19] displayed an AC50 in experiment [1] of 29500 nM. The Ki in experiment [2] turned out to be 50.1 nM.

Consider `COCCOCCn1c(C(=O)O)c2c3ccc(Cl)c(c31)-c1c(cnn1C)CSCc1cc(n(C)n1)CCc1cc(c3ccc(F)cc3c1)OCCC2` (single isomer, unassigned) [Compound 20], for which the AC50 in experiment [1] stood at 30000 nM. Moreover, in experiment [2], the Ki amounted to 200 nM.

On to `Cn1nc2cc1CCc1cc(c3ccc(F)cc3c1)OCCCc1c(C(=O)O)n(CCN3CCOCC3)c3c(c(Cl)ccc13)-c1c(cnn1C)CSC2` (single isomer, unassigned) [Compound 21], for which the AC50 in experiment [1] worked out at 82 nM. Besides, the Ki in experiment [2] was 0.02 nM.

The values are drawn from patent publication US20230265105A1, “MACROCYCLIC 7-PYRAZOL-5-YL-INDOLE DERIVATIVES AS INHIBITORS OF MCL-1” (Janssen Pharmaceutica NV, priority 2020, published 2023).
